Assays:
Format in all cases: in vivo
[1] = tested on: goosegrass (Eleusine indica); assay: Test C preemergence, goosegrass; conditions: 0 is no effect, 100 is complete control
Method in brief: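 Injury is given as a visual 0–100 rating, where 100 is complete control, made against untreated plants after 10 or 12 greenhouse days. Galium received a postemergence spray at the one- to two-leaf stage (2–10 cm tall). Corn, ragweed and goosegrass seeds in loam-sand blend received a directed preemergence soil spray; test chemicals were formulated in a surfactant-containing non-phytotoxic solvent.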

[2] = tested on: blackgrass (Alopecurus myosuroides); assay: Test C postemergence, blackgrass; conditions: visual injury, 0 to 100 scale (0 no effect, 100 complete control)
Method in brief: (§1)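 Steps: sow in loam soil blended with sand; treat soil preemergence by directed spray, or treat young plants (2–10 cm, one to two leaves) postemergence; hold in greenhouse 10 or 12 days; rate injury visually relative to untreated controls on a 0–100 scale.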

[3] = tested on: foxtail, giant (giant foxtail, Setaria faberi); assay: Test C postemergence, giant foxtail; conditions: for Foxtail, Giant plant response rating: visual injury, 0 to 100 scale (0 no effect, 100 complete control); for Plant response rating (0 to 100 scale), Foxtail, Giant: 0 is no effect, 100 is complete control
[4] = tested on: oat, wild (wild oat, Avena fatua); assay: Test C postemergence, wild oat; conditions: for Oat, Wild plant response rating: visual injury, 0 to 100 scale (0 no effect, 100 complete control); for Plant response rating (0 to 100 scale), Oat, Wild: 0 is no effect, 100 is complete control
[5] = tested on: pigweed, palmer (palmer amaranth, Amaranthus palmeri); assay: Test C postemergence, palmer amaranth; conditions: for Pigweed, Palmer plant response rating: visual injury, 0 to 100 scale (0 no effect, 100 complete control); for Plant response rating (0 to 100 scale), Pigweed, Palmer: 0 is no effect, 100 is complete control
Method in brief: as §1

[6] = tested on: soybean (Glycine max); assay: Test C postemergence, soybean; conditions: for Soybean plant response rating: visual injury, 0 to 100 scale (0 no effect, 100 complete control); for Plant response rating (0 to 100 scale), Soybean: 0 is no effect, 100 is complete control
[7] = tested on: galium (catchweed bedstraw, Galium aparine); assay: Test C postemergence, galium; conditions: for Galium plant response rating: visual injury, 0 to 100 scale (0 no effect, 100 complete control); for Plant response rating (0 to 100 scale), Galium: 0 is no effect, 100 is complete control
[8] = tested on: ducksalad (Heteranthera limosa); assay: Test D flooded paddy test, ducksalad; design: key: 0 = no effect, 100 = complete control; conditions: 250 g ai/ha, Flood; applied to paddy water at 2-leaf stage; visual rating after 13 days; scale 0 (no effect) to 100 (complete control)
Method in brief: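 Visual response scores run 0 (no effect) to 100 (complete control), judged against controls 13 days after treatment. Compounds were added to paddy water 3 cm deep over soil, around plants at the 2-leaf stage kept in a greenhouse.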

SMILES	Plant response rating (0 to 100 scale), Goosegrass ([1]; 31 g ai/ha Preemergence)	Plant response rating (0 to 100 scale), Goosegrass ([1]; 125 g ai/ha Preemergence)	Blackgrass plant response rating ([2]; 31 g ai/ha Postemergence)	Foxtail, Giant plant response rating ([3]; 31 g ai/ha Postemergence)	Plant response rating (0 to 100 scale), Foxtail, Giant ([3]; 125 g ai/ha Postemergence)	Oat, Wild plant response rating ([4]; 31 g ai/ha Postemergence)	Plant response rating (0 to 100 scale), Oat, Wild ([4]; 125 g ai/ha Postemergence)	Pigweed, Palmer plant response rating ([5]; 31 g ai/ha Postemergence)	Pigweed, Palmer plant response rating ([5]; 125 g ai/ha Postemergence)	Soybean plant response rating ([6]; 31 g ai/ha Postemergence)	Soybean plant response rating ([6]; 125 g ai/ha Postemergence)	Galium plant response rating ([7]; 31 g ai/ha Postemergence)	Plant response rating (0 to 100 scale), Galium ([7]; 125 g ai/ha Postemergence)	Plant response rating, Ducksalad [8]	Blackgrass plant response rating ([2]; 125 g ai/ha Postemergence)	Foxtail, Giant plant response rating ([3]; 125 g ai/ha Postemergence)	Oat, Wild plant response rating ([4]; 125 g ai/ha Postemergence)	Plant response rating (0 to 100 scale), Pigweed, Palmer ([5]; 125 g ai/ha Postemergence)	Plant response rating (0 to 100 scale), Soybean ([6]; 125 g ai/ha Postemergence)	Galium plant response rating ([7]; 125 g ai/ha Postemergence)
Cc1c(NS(=O)(=O)C(F)(F)F)cc(N2CCC(OC3CC3)C2=O)c(C)c1F (stereo not drawn) [Compound 26]	90	100	40	40	90	20	50	70	90	70	100	100	100	75						
Cc1cc(C)c(N(COC(=O)C(C)(C)C)S(=O)(=O)C(F)(F)F)cc1N1CCC(OCC2CC(F)(F)C2)C1=O (stereo not drawn) [Compound 55]	10	100	0	30		20		0	40	50	70			90	40	70	30			
CCO/N=C1\CCN(c2cc(NS(=O)(=O)C(F)(F)F)c(C)cc2C)C1=O [Compound 12, N-[5-[3-(ethoxyimino)-2-oxo-1-pyrrolidinyl]-2,4-dimethylphenyl]-1,1,1-trifluoromethanesulfonamide]	90	100	80	90	90	90	90	80		100		100	100	100				100	100	
Cc1c(N2CCC(OC3CC3)C2=O)cc(N(COC(=O)C(C)(C)C)S(=O)(=O)C(F)(F)F)c(C)c1C (stereo not drawn) [Compound 49]	60	90	30	60		30		10	50	60	80	80		95	60	90	70			90
Cc1cc(C)c(N2CCC(OCC3CC3(F)F)C2=O)cc1NS(=O)(=O)C(F)(F)F (stereo not drawn) [Compound 41]	90	100	40	20		30		50	90	90	90	100		60	60	90	30			100
Cc1cc(C)c(N2CCC(OCC3CCC3(F)F)C2=O)cc1NS(=O)(=O)C(F)(F)F (stereo not drawn) [Compound 52]	80	100	20	0		10		0	40	60	70	70		90	40	50	60			100
Cc1c(N2CCCC(OC3CC3)C2=O)cc(N(COC(=O)C(C)(C)C)S(=O)(=O)C(F)(F)F)c(C)c1F (stereo not drawn) [Compound 37]	50	100	0	10	80	20	70	0	30	60	70	60	90	70						
Cc1c(NS(=O)(=O)C(F)(F)F)cc(N2CCC(OC3CCC3)C2=O)c(C)c1F (stereo not drawn) [Compound 25]	90	100	0	30	30	0	20	70	90	100	100	100	100	75						
CC#CCOC1CCN(c2cc(NS(=O)(=O)C(F)(F)F)c(C)cc2C)C1=O (stereo not drawn) [Compound 60]	90	100	50	80		30		60	90	80	100	100		90	90	90	90			100
Cc1cc(C)c(N(COC(=O)C(C)(C)C)S(=O)(=O)C(F)(F)F)cc1N1CCC(OCC2CC2(F)F)C1=O (stereo not drawn) [Compound 54]	20	100	30	30		10		0	50	50	60			90	90	70	80			
C=CCO/N=C1\CCN(c2cc(NS(=O)(=O)C(F)(F)F)c(C)cc2C)C1=O [Compound 11]	100	100	40	60	90			40		100		80	100	100				90	100	
Cc1cc(C)c(N(COC(=O)C(C)(C)C)S(=O)(=O)C(F)(F)F)cc1N1CCC(OCC2CC2)C1=O (stereo not drawn) [Compound 53]	60	100	20	30		10		40	70	50	60			70	60	90	50			
Cc1cc(C)c(N(COC(=O)C(C)(C)C)S(=O)(=O)C(F)(F)F)cc1N1CCC(OCC2CCC2)C1=O (stereo not drawn) [Compound 56]	10	90	0	10		10		0	40	40	50			85	20	40	10			

From patent US20240158348A1, “HERBICIDAL CYCLIC AMIDES N-SUBSTITUTED WITH A HALOALKYLSULFONYLANILIDE GROUP” (FMC Corporation, priority 2021, published 2024)
